Test results as given in ChEMBL document CHEMBL1201862, “PubChem BioAssay data set” (2004).
The source made the active and inactive calls.

Columns and labels:
[1] = Luminescence Cell-Based Dose Response HTS to Identify Activators of Luciferase Translation or Activity in H4 […] Cells. [Related pubchem assays: 1829 (Project Summary), 1814 (Primary HTS)]; assay type: functional
[2] = control 3'UTR Renilla luciferase suppression, dose response, counter-screen for Shn3 inhibitor project, cell-based, Clone20-Shn3RL, cherry-picked (AID 624133); assay type: functional
H4 = assay: Luminescence Cell-Based Dose Response HTS to Identify Activators of 5'UTR Stem-Loop Driven Prion Protein mRNA Translation in H4 Neuroglioblastoma Cells. [Related pubchem assays: 1829 (Project Summary), 1814 (Primary HTS)]; assay type: functional; conditions: Homo sapiens
[3] = molecular target: T1, High affinity choline transporter 1 (Homo sapiens, UniProt Q9GZV3); assay: CHT inhibitors, dose response, cell-based, 5-point CRC, membrane potential dye (AID 504840); assay type: functional
T1 sequence (Q9GZV3 whole entry): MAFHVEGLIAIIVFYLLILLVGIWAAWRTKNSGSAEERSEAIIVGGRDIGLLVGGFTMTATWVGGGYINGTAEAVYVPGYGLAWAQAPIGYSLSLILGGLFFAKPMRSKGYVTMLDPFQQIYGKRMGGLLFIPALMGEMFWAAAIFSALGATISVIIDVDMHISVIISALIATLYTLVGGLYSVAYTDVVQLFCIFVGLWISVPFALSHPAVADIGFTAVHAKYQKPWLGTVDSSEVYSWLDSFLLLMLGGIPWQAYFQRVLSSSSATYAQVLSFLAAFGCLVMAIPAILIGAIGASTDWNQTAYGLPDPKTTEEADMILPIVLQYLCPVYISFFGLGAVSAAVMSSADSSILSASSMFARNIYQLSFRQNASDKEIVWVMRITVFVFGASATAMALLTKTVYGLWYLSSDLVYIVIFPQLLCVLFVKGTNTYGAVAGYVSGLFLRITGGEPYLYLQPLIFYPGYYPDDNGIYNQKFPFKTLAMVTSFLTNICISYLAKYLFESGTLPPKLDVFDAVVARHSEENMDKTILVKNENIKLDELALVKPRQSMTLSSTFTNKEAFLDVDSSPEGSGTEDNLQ

[4] = molecular target: T1, High affinity choline transporter 1; assay: CHT inhibitors, dose response, cell-based, 10-point CRC, membrane potential dye (AID 588401); assay type: functional;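 also: membrane potential dye fluorescence of choline-evoked depolarization via CHT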
[5] = molecular target: Hepatocyte nuclear factor 4-alpha (Homo sapiens, UniProt P41235); assay type: functional, cell-based;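 also: biochemical luminescence-based dose-response counterscreen measuring inhibition of HNF4 dimerization, run alongside a screen for blockers of ABHD5–perilipin-5 interaction; split luciferase complementation of HNF4 fusion proteins in cell lysate measuring dimerization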
[6] = molecular target: Potassium voltage-gated channel subfamily KQT member 2 (Rattus norvegicus, UniProt O88943, W236L); assay: KCNQ2 channel potentiators, dose response, mechanism study for KCNQ2 potentiator project, cell-based, automated electrophysiology (AID 2603); assay type: functional
Protein RecA = molecular target: T2, Protein RecA (Mycobacterium tuberculosis, UniProt P9WHJ3); assay: Fluorescence Cell-Free Homogeneous Dose Retest to Identify Inhibitors of RecA-Intein Splicing Activity. [Related pubchem assays (depositor defined):AID2097, AID2223, AID489010, AID492950]; assay type: functional
T2 sequence (P9WHJ3 whole entry): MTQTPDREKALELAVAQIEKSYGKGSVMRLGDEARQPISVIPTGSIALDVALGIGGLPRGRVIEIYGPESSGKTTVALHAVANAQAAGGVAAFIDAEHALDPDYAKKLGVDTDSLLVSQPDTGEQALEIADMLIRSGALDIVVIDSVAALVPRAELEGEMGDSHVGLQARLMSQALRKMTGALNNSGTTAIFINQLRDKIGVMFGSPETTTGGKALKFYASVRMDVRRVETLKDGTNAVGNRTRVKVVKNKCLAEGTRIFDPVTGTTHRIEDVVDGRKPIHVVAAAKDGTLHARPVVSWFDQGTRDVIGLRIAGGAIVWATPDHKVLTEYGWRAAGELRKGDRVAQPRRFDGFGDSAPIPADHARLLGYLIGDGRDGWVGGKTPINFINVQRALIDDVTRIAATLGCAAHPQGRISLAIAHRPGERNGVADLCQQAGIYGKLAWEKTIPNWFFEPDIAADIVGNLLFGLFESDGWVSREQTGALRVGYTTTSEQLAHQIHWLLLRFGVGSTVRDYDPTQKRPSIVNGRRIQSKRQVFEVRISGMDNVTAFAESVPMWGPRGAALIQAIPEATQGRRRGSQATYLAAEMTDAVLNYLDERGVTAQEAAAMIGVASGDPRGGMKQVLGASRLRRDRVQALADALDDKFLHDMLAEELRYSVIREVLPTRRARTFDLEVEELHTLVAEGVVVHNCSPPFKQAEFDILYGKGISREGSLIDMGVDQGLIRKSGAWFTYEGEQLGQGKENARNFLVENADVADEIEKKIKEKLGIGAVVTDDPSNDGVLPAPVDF

[7] = Shn3 3'UTR reporter inhibitors, dose response, cell-based, Clone20 osteoblasts, firefly luciferase, cherry-picked (AID 624132); assay type: functional;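 also: firefly luciferase luminescence from reporter carrying the Shn3 3'UTR in osteoblasts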
Genome polyprotein = Genome polyprotein (dengue virus type 2, UniProt P29990); assay: Dengue-2 NS5 methyltransferase inhibitors, primary screen, biochemical, confirmation dose response (AID 588689); assay type: functional
[8] = Luminescence Cell-Based Dose Confirmation HTS to Identify Activators of 5'UTR Stem-Loop Driven Alpha-Synuclein mRNA Translation in H4 Neuroglioblastoma Cells. [Related pubchem assays: 1829 (Project Summary), 1814 (Primary HTS)]; assay type: functional
Vero = Vero cell cytotoxicity, cytotoxicity control for flavivirus capping enzyme inhibitors (AID 588742); assay type: functional; conditions: Chlorocebus sabaeus
[9] = molecular target: T3, Replicative DNA helicase DnaB (Mycobacterium tuberculosis, UniProt P9WMR3); assay: DnaB intein splicing inhibitors, dose response, biochemical, cell-free fluorescence (AID 449749); assay type: functional
T3 sequence (P9WMR3 whole entry): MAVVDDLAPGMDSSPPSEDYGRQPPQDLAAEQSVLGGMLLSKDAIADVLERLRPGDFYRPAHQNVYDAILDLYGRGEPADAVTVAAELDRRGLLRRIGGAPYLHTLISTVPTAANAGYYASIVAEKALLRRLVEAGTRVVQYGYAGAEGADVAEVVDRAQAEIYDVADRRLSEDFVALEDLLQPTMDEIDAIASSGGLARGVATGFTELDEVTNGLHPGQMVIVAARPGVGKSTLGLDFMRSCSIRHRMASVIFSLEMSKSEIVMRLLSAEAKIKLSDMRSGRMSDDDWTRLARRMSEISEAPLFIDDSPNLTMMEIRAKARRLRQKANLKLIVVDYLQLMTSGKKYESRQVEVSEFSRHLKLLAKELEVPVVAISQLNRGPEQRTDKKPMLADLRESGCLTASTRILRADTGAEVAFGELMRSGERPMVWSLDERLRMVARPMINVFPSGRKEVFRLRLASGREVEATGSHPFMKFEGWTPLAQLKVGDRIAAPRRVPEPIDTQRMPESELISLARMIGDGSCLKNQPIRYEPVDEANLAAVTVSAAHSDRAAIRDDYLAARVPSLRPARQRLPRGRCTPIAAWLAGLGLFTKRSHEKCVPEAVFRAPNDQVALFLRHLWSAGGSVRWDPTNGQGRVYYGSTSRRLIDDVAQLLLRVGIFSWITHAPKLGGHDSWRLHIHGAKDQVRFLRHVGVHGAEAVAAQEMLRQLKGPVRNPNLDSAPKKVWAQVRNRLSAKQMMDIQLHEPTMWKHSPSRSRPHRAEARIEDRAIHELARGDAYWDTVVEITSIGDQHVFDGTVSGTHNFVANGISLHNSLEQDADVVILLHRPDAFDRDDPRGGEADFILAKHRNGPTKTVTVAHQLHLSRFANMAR

[10] = molecular target: T4, Sphingosine 1-phosphate receptor 2 (Homo sapiens, UniProt O95136); assay: Dose Response Cell Based Assay for Agonists of the S1P2 Receptor of Purchased Analogues. [Related pubchem assays: 729, 843, 854, 736 ]; assay type: functional
Streptokinase A = molecular target: T5, Streptokinase A (Streptococcus pyogenes serotype M1, UniProt P10520); assay: Absorbance Microorganism-Based Dose Response Follow up to Identify Inhibitors of Streptokinase Expression. [Related pubchem assays: 1677 (Project Summary), 1915, 1914, 1902 (Retest at Dose), 1900 (Counter Screen), 1662 (Primary HTS)]; assay type: functional, Streptococcus pyogenes M1 GAS
T5 sequence (P10520 whole entry): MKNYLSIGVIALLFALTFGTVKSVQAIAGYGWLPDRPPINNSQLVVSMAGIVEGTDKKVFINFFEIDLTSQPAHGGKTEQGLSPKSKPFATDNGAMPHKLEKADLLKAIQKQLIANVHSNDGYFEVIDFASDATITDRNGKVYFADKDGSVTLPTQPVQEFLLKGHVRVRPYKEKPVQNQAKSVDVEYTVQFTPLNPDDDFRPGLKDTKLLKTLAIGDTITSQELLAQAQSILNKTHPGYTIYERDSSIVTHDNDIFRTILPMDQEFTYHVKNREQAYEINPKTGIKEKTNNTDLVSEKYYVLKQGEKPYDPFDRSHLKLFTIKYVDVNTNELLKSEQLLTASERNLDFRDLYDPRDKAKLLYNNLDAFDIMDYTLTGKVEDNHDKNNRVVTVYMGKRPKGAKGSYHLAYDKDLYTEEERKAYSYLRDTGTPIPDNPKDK

Streptococcus = assay: Streptococcus pyogenes growth inhibition counter-screen, dose response, counter-screen for streptokinase expression inhibitor project, luminescence, BacTiter-Glo, strain UMAA2166 (AID 2477); assay type: functional, organism-based
[11] = molecular target: T4, Sphingosine 1-phosphate receptor 2; assay: Dose Response Cell Based Assay for Antagonists of the S1P2 Receptor. [Related pubchem assays: 856, 736 ]; assay type: functional
Nonstructural protein 1 = Nonstructural protein 1 (Influenza A virus, UniProt Q194T2); assay type: functional, Influenza A virus (A/California/07/2009(H1N1))
BJ [12] = assay: cytotoxicity toward BJ-TERT-LT-ST fibroblasts, dose response, cell-based, RAS-independent, luminescence (AID 1935); assay type: functional; conditions: Homo sapiens;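 also: BJ fibroblasts immortalized with TERT plus LT and ST oncogenes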
[13] = cytotoxicity toward DRD oncogenic fibroblasts, dose response, cell-based, non-viral oncogenic, luminescence (AID 1934); assay type: functional; conditions: Homo sapiens
BJ [14] = assay: cells; assay type: functional, cell-based; conditions: Homo sapiens
INS1 = assay: beta cell apoptosis inhibitors, cytokine rescue, dose response, luminescence, retest (AID 449756); assay type: functional, cell-based; conditions: Rattus norvegicus;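 also: cell death triggered by IL-1 beta plus TNF-alpha plus IFN-gamma mixture; protective hits raise ATP signal compared with cytokine alone wells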
[15] = Vero E6 cell cytotoxicity, dose response, cytotoxicity control for non-replicating M. tuberculosis project, secondary assay (AID 492998); assay type: functional, VeroE6; conditions: Vero C1008
[16] = molecular target: T6, Mannose-6-phosphate isomerase (Homo sapiens, UniProt P34949); assay: inhibitors of human PMI, primary screen, biochemical, fluorescence intensity, coupled assay (AID 1209)
T6 sequence (P34949 whole entry): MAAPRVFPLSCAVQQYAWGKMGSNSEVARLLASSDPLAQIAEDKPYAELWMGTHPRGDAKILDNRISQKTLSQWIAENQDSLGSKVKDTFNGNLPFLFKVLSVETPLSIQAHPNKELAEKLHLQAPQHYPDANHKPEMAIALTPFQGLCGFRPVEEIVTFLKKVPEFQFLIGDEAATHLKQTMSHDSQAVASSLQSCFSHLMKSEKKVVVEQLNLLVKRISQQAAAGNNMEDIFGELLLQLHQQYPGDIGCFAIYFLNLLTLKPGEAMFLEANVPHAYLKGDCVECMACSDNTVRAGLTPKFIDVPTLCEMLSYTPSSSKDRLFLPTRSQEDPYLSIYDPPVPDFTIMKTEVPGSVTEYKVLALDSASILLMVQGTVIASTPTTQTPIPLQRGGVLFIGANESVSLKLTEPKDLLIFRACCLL

cells = assay type: functional
[17] = THP-1 cell cytotoxicity, dose response, cytotoxicity control for non-replicating M. tuberculosis project (AID 489025); assay type: functional
BJ [18] = assay: cytotoxicity toward BJ-TERT fibroblasts, dose response, cell-based, RAS-independent, luminescence (AID 1933); assay type: functional; conditions: Homo sapiens
BJ [19] = assay: cytotoxicity toward Ras-transformed BJeLR fibroblasts, dose response, cell-based, alamar blue fluorescence, cherrypicked samples (AID 2631); assay type: functional; conditions: Homo sapiens;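 also: confirmatory dose-response assay in RAS-dependent BJ fibroblasts engineered with TERT, LT and ST, with cytotoxicity read by fluorescence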

T4 sequence (O95136 whole entry): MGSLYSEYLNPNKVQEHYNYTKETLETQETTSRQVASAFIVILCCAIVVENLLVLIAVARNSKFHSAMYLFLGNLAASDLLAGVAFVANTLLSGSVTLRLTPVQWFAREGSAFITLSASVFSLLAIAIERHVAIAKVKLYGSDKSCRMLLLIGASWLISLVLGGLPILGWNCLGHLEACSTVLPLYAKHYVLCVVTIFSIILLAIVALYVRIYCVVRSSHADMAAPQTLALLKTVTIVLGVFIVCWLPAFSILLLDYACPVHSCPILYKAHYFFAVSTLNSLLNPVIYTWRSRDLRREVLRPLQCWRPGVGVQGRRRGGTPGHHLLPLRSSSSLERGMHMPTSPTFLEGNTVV
Sequence of Genome polyprotein (P29990 2492-3391 limits assumed): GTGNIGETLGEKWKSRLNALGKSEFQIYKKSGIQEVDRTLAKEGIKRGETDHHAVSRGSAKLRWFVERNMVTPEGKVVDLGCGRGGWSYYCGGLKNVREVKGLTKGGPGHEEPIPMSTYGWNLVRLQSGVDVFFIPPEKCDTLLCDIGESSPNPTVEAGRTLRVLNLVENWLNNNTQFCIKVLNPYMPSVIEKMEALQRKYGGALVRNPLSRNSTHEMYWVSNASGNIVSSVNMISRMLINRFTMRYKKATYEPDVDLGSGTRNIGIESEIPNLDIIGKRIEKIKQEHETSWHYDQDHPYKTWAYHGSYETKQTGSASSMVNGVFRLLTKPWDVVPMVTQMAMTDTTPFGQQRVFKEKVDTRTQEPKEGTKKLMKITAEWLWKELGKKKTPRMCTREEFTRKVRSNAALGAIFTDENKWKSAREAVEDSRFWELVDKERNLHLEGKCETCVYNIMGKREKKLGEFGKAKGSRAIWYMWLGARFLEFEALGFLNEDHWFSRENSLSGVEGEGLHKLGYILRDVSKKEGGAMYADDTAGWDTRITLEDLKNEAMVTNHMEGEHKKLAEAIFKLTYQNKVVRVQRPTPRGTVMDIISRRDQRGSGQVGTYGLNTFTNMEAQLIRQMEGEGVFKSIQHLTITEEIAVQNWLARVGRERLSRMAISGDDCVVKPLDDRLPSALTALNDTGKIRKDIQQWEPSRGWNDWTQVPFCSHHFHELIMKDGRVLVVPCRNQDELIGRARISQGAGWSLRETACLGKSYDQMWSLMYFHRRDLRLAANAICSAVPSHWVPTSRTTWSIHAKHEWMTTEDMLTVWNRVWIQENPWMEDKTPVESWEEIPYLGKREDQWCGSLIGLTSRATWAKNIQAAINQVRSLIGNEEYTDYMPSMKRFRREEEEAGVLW
Sequence of Nonstructural protein 1 (Q194T2 whole entry): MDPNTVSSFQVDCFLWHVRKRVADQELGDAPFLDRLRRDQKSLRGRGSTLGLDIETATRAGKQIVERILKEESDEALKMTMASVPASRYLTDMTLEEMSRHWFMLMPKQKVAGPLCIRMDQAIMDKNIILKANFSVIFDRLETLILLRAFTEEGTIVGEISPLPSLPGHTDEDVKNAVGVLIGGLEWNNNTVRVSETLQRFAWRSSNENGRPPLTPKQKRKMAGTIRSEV
Sequence of Potassium voltage-gated channel subfamily KQT member 2 (O88943 whole entry W236L): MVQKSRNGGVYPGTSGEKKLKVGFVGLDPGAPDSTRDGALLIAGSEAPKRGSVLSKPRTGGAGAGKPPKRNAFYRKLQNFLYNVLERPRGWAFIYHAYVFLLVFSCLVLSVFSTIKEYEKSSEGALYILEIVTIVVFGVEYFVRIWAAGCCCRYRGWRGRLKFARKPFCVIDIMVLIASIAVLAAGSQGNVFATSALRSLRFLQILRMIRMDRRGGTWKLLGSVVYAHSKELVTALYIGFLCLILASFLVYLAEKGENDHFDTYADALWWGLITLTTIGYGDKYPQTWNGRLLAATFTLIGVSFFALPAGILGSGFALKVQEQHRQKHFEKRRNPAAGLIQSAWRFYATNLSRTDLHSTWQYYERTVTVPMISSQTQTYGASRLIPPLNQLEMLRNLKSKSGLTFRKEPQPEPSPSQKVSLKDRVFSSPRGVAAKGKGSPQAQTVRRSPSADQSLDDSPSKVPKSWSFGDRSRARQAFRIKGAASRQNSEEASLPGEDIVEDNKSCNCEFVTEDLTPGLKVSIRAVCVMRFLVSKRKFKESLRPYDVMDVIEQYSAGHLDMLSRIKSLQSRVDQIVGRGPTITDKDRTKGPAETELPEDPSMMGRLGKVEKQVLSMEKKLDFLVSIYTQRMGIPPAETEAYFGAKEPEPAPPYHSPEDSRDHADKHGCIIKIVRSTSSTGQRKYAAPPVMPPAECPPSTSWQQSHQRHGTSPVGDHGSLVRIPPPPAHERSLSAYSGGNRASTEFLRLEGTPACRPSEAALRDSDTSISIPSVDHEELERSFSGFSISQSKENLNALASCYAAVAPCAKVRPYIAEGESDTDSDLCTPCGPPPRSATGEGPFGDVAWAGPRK
Sequence of Hepatocyte nuclear factor 4-alpha (P41235 whole entry, the tested form may be a part): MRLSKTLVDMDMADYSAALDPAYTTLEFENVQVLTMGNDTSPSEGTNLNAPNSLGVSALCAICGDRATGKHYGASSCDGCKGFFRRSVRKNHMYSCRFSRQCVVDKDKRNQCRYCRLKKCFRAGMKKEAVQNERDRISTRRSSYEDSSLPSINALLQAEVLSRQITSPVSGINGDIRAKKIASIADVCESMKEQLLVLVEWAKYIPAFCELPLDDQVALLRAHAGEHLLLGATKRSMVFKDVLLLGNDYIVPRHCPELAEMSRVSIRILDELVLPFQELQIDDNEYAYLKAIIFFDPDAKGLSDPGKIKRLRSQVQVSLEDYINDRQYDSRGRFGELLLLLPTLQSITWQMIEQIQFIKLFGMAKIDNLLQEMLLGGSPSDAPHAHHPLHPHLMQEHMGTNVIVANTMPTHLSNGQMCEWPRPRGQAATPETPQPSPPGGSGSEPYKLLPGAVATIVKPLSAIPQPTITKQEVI

CCc1nnc(NC(=O)c2nc(S(=O)(=O)Cc3cccc(C)c3)ncc2Cl)s1
> 120 µM (not active): EC50 [1] | EC50 (H4) | EC50 [8]
active: AC50 [2] 6.99 µM | IC50 [3] 2.4 µM | IC50 [4] 2.82 µM | IC50 [5] 5.05 µM | EC50 [6] 16.8 µM | EC50 (Protein RecA) 4.37 µM | AC50 [7] 2.51 µM | IC50 (Genome polyprotein) > 100 µM | CC50 (Vero) 26.6 µM | AC50 [9] 5.05 µM

Cc1cc(C(=O)CN(C)CC(=O)N(C)C)c(C)n1Cc1ccccc1
> 30 µM (not active): EC50 [10]

COc1cccc(-c2nc(OC(C)C)c3ccccc3n2)c1
active: EC50 (Streptokinase A) 8.2 µM | EC50 (Streptococcus) 68.7 µM

CC1=C(C)/C(=N\OS(=O)(=O)c2ccccc2)C=CC1=O
> 120 µM (not active): EC50 [1] | EC50 (H4) | EC50 [8]
active: IC50 [11] 4.33 µM | IC50 (Nonstructural protein 1) > 100 µM | EC50 [13] 4.57 µM | EC50 (BJ [14]) 2.92 µM | AC50 (INS1) 1.92 µM | CC50 [15] > 20 µM | IC50 [16] 6.61 µM | EC50 (Protein RecA) 7.72 µM | IC50 (cells) 11.4 µM | CC50 [17] 12.1 µM | AC50 [9] 87.4 µM
inconclusive: EC50 (BJ [12]) 4.32 µM | EC50 (BJ [18]) 2.78 µM | EC50 (BJ [19]) 0.557 µM
